In patent publication US7560456B2, “Pesticidal pyridinecarboxamide derivatives” (Merial Limited, priority 2002, dated 2009):

How the values were obtained:
[1] = system: black bean aphids (Aphis fabae); assay: Method B: root-systemic test, aqueous solution of the formulated preparation pipetted into the bottle of field bean (Vicia faba) populated with aphids; type: in vivo; conditions: 10 ppm (based on content of active compound), 4 ml solution pipetted into bottle, after 3 and 6 days of storage, read-out: mortality among the aphids, by root-systemic action
Description: Germinated field bean seeds (Vicia faba) with seed roots were transferred into brown glass bottles filled with tap water. Four milliliters of an aqueous solution of the formulated preparation to be examined were pipetted into the brown glass bottle.
The field bean was then heavily populated with about 100 black bean aphids (Aphis fabae). Plants and aphids were then stored in a climatized chamber (16 hours of light/day, 25° C., 40-60% relative atmospheric humidity). After 3 and 6 days of storage, the root-systemic effect of the preparation on the aphids was determined.

[2] = system: black bean aphids (Aphis fabae); assay: whole plant or invertebrate; conditions: in Vicia faba, read-out: mortality among the aphids

SMILES: C=CCSC(=NC(=O)c1cnccc1C(F)(F)F)NCc1ccccc1 [Compound A-724, 1-benzyl-S-(2-propenyl)-3-(4-trifluoromethyl-3-pyridylcarbonyl)isothiourea]
- mortality at 10 ppm [1]: ≥ 80%
- mortality at 100 ppm [2]: ≥ 50%
